# What was measured:
# Format in all cases: functional
# Mus musculus [1] = experiment: Inhibition of DMBA-induced/TPA-promoted carcinogenesis in mouse assessed as number of skin papillomas per mouse at 85 nmol administered twice weekly after 1 week of initiation measured after 20 weeks by two stage carcinogenesis test; design: scale not given: the % may be the effect or the level left
# Mus musculus [2] = organism: Mus musculus; experiment: Inhibition of 4NQO-induced carcinogenesis in mouse assessed as total number of tumors at 1.25 mg after 25 weeks by two stage carcinogenesis test
# Mus musculus [3] = organism: Mus musculus; experiment: Inhibition of 4NQO-induced carcinogenesis in mouse assessed as number of tumors per mouse at 1.25 mg after 25 weeks by two stage carcinogenesis test
# Mus musculus [4] = organism: Mus musculus; experiment: Inhibition of 4NQO-induced carcinogenesis in mouse assessed as reduction of mouse with tumor at 1.25 mg after 25 weeks by two stage carcinogenesis test; design: scale not given: the % may be the effect or the level left
Structure (SMILES),Activity (Mus musculus [1]),Activity (Mus musculus [2]),Activity (Mus musculus [3]),Activity (Mus musculus [4])
COc1ccc(-c2coc3cc(O)c(OC)cc3c2=O)cc1 [CASTANIN],40%,14,0.93,60%
C[C@@H]1O[C@@H](O[C@H]2[C@H](O[C@H]3[C@H](O[C@H]4CC[C@@]5(C)[C@@H](CC[C@]6(C)[C@@H]5CC=C5[C@@H]7CC(C)(C)C[C@@H](O)[C@]7(C)CC[C@]56C)[C@@]4(C)CO)O[C@H](C(=O)O)[C@@H](O)[C@@H]3O)O[C@H](CO)[C@H](O)[C@@H]2O)[C@H](O)[C@H](O)[C@H]1O [SOYASAPONIN I],40%,–,–,–

# From ChEMBL document CHEMBL1150067, “Anti-tumor-promoting activities of afromosin and soyasaponin I isolated from Wistaria brachybotrys” (1992)
